For assay [1], the system named is MDA-MB-231. The experiment in a line: Growth inhibition of human MDA-MB-231 cells at 100 uM after 24 hrs by MTT assay. In kind it is functional. The note with it: MDA-MB-231, 24 h.
For assay [2], the system named is MDA-MB-231. The experiment in a line: Growth inhibition of human MDA-MB-231 cells after 24 hrs by MTT assay. Particulars: MDA-MB-231, 24 h. In kind it is functional, cell-based. A general note: Formazan colour is commonly taken as a measure of viable cells.

SMILES strings stand for the structures.

By inhibition is commonly meant the relative decrease from the control value, in per cent. Lower therefore signals a response near the control. As for `O=C(N/N=C/c1cccc([N+](=O)[O-])c1)c1ccc(O[C@@H]2O[C@H](CO)[C@@H](O)[C@H](O)[C@H]2O)cc1`, the inhibition at 100 µM with MDA-MB-231 [1] was 6.23%.
`O=C(N/N=C/c1ccccc1)c1ccc(O[C@@H]2O[C@H](CO)[C@@H](O)[C@H](O)[C@H]2O)cc1`: the inhibition at 100 µM with MDA-MB-231 [1] worked out at 3.56%.
A word on the IC50: it is the point on the concentration scale where inhibition reaches its midpoint. Read a high IC50 as weaker potency. In the case of `CC(=O)OC[C@H]1O[C@@H](Oc2ccc(-c3nnc(-c4cccc([N+](=O)[O-])c4)o3)cc2)[C@H](OC(C)=O)[C@@H](OC(C)=O)[C@@H]1OC(C)=O`, in the assay on MDA-MB-231 [1], the inhibition at 100 µM was 40.1%. The compound also showed a 50% inhibitory concentration (IC50) with MDA-MB-231 [2] of 3.6 µM.
The compound `O=C(N/N=C/c1ccc(F)cc1)c1ccc(O[C@@H]2O[C@H](CO)[C@@H](O)[C@H](O)[C@H]2O)cc1` (stereo in doubt) showed an inhibition at 100 µM in the assay on MDA-MB-231 [1] of 9.91%.
The compound `CC(=O)OC[C@H]1O[C@@H](Oc2ccc(-c3nnc(-c4cccc(C#N)c4)o3)cc2)[C@H](OC(C)=O)[C@@H](OC(C)=O)[C@@H]1OC(C)=O` yielded an inhibition at 100 µM with MDA-MB-231 [1] of 44.1%. Also, the IC50 with MDA-MB-231 [2] was determined as 1.08 µM.
Compound `CC(=O)OC[C@H]1O[C@@H](Oc2ccc(-c3nnc(-c4ccc([N+](=O)[O-])cc4)o3)cc2)[C@H](OC(C)=O)[C@@H](OC(C)=O)[C@@H]1OC(C)=O` came in with an inhibition at 100 µM with MDA-MB-231 [1] of 58%. In the assay with MDA-MB-231 [2], this compound gave an IC50 of 0.95 µM.
On to `Cc1ccc(/C=N/NC(=O)c2ccc(O[C@@H]3O[C@H](CO)[C@@H](O)[C@H](O)[C@H]3O)cc2)cc1` (stereo in doubt), for which the inhibition at 100 µM with MDA-MB-231 [1] stood at 9.28%.
`CC(=O)OC[C@H]1O[C@@H](Oc2ccc(-c3nnc(-c4ccc(F)cc4)o3)cc2)[C@H](OC(C)=O)[C@@H](OC(C)=O)[C@@H]1OC(C)=O` showed an inhibition at 100 µM in the assay with MDA-MB-231 [1] of 54.1%. Besides, the midpoint of inhibition with MDA-MB-231 [2], the IC50, lay at 0.26 µM.
In the case of `CC(=O)OC[C@H]1O[C@@H](Oc2ccc(-c3nnc(-c4ccc(Cl)cc4)o3)cc2)[C@H](OC(C)=O)[C@@H](OC(C)=O)[C@@H]1OC(C)=O`, the inhibition at 100 µM in the assay on MDA-MB-231 [1] is 42.1%. The compound further came in with an IC50 in the assay with MDA-MB-231 [2] of 0.89 µM.
On to `CCCCC/C=N/NC(=O)c1ccc(O[C@@H]2O[C@H](CO)[C@@H](O)[C@H](O)[C@H]2O)cc1`, for which at 100 µM the inhibition in the assay on MDA-MB-231 [1] was 11%.
In turn, `O=C(N/N=C/C1CCCCC1)c1ccc(O[C@@H]2O[C@H](CO)[C@@H](O)[C@H](O)[C@H]2O)cc1` registered an inhibition at 100 µM in the assay with MDA-MB-231 [1] of 0.88%.
For the compound `CC(=O)OC[C@H]1O[C@@H](Oc2ccc(-c3nnc(-c4ccc(C)cc4)o3)cc2)[C@H](OC(C)=O)[C@@H](OC(C)=O)[C@@H]1OC(C)=O`, in the assay with MDA-MB-231 [1], at 100 µM the inhibition was 13.1%.
The same measure, in the same setting: for `N#Cc1cccc(/C=N/NC(=O)c2ccc(O[C@@H]3O[C@H](CO)[C@@H](O)[C@H](O)[C@H]3O)cc2)c1` the value was 6.17%; for `O=C(N/N=C/c1ccc(Cl)cc1)c1ccc(O[C@@H]2O[C@H](CO)[C@@H](O)[C@H](O)[C@H]2O)cc1` (stereo in doubt), 2.26%.
Compound `CC(=O)OC[C@H]1O[C@@H](Oc2ccc(-c3nnc(C4CCCCC4)o3)cc2)[C@H](OC(C)=O)[C@@H](OC(C)=O)[C@@H]1OC(C)=O` returned an inhibition at 100 µM in the assay on MDA-MB-231 [1] of 11.6%.
`CN(CCOc1ccc(CC2SC(=O)NC2=O)cc1)c1ccccn1` (stereo not given) [ROSIGLITAZONE] had an inhibition at 100 µM in the assay with MDA-MB-231 [1] of 34.2%. Besides, the IC50 in the assay on MDA-MB-231 [2] is 5.23 µM.
In the assay with MDA-MB-231 [1], `CC(C)/C=N/NC(=O)c1ccc(O[C@@H]2O[C@H](CO)[C@@H](O)[C@H](O)[C@H]2O)cc1` yielded an inhibition at 100 µM of 1.7%.
The compound `CC(=O)OC[C@H]1O[C@@H](Oc2ccc(-c3nnc(-c4cccc(Cl)c4)o3)cc2)[C@H](OC(C)=O)[C@@H](OC(C)=O)[C@@H]1OC(C)=O` returned an inhibition at 100 µM in the assay on MDA-MB-231 [1] of 36.7%. For the same compound, the IC50 with MDA-MB-231 [2] is 1.35 µM.
Taken in the same sequence, the figures for `CCCCCc1nnc(-c2ccc(O[C@@H]3O[C@H](COC(C)=O)[C@@H](OC(C)=O)[C@H](OC(C)=O)[C@H]3OC(C)=O)cc2)o1` were 21.5% and 8.34 µM.
`O=C(N/N=C/c1ccc([N+](=O)[O-])cc1)c1ccc(O[C@@H]2O[C@H](CO)[C@@H](O)[C@H](O)[C@H]2O)cc1` came in with an inhibition at 100 µM with MDA-MB-231 [1] of 7.12%.
As for `COc1ccc(/C=N/NC(=O)c2ccc(O[C@@H]3O[C@H](CO)[C@@H](O)[C@H](O)[C@H]3O)cc2)cc1` (stereo in doubt), 100 µM produced 11.3% inhibition in the assay with MDA-MB-231 [1].
In the assay on MDA-MB-231 [1], `COc1ccc(-c2nnc(-c3ccc(O[C@@H]4O[C@H](COC(C)=O)[C@@H](OC(C)=O)[C@H](OC(C)=O)[C@H]4OC(C)=O)cc3)o2)cc1` gave an inhibition at 100 µM of 26%. In the assay with MDA-MB-231 [2], this compound displayed a half-inhibitory concentration (IC50) of 9.23 µM.
For `CC(=O)OC[C@H]1O[C@@H](Oc2ccc(-c3nnc(C(C)C)o3)cc2)[C@H](OC(C)=O)[C@@H](OC(C)=O)[C@@H]1OC(C)=O`, testing at 100 µM in the assay with MDA-MB-231 [1] gave an inhibition of 11.9%.
In the assay on MDA-MB-231 [1], `O=C(N/N=C/c1cccc(Cl)c1)c1ccc(O[C@@H]2O[C@H](CO)[C@@H](O)[C@H](O)[C@H]2O)cc1` registered an inhibition at 100 µM of 5.02%.
Take `CC(=O)OC[C@H]1O[C@@H](Oc2ccc(-c3nnc(-c4ccccc4)o3)cc2)[C@H](OC(C)=O)[C@@H](OC(C)=O)[C@@H]1OC(C)=O`: the inhibition at 100 µM in the assay on MDA-MB-231 [1] is 29.5%. The IC50 in the assay with MDA-MB-231 [2] is 5.97 µM.

Values taken from ChEMBL document CHEMBL3351475, “Synthesis and anti-tumor activity of glycosyl oxadiazoles derivatives” (Bioorg Med Chem Lett, 2014).
